Reference: ChEMBL document CHEMBL1141479 (Bioorg Med Chem Lett, 2008)
The source made the active and inactive calls. The rule behind the calls is not given here.

Target: T1, Progesterone receptor (Homo sapiens) (UniProt P06401)
T1 sequence (whole entry): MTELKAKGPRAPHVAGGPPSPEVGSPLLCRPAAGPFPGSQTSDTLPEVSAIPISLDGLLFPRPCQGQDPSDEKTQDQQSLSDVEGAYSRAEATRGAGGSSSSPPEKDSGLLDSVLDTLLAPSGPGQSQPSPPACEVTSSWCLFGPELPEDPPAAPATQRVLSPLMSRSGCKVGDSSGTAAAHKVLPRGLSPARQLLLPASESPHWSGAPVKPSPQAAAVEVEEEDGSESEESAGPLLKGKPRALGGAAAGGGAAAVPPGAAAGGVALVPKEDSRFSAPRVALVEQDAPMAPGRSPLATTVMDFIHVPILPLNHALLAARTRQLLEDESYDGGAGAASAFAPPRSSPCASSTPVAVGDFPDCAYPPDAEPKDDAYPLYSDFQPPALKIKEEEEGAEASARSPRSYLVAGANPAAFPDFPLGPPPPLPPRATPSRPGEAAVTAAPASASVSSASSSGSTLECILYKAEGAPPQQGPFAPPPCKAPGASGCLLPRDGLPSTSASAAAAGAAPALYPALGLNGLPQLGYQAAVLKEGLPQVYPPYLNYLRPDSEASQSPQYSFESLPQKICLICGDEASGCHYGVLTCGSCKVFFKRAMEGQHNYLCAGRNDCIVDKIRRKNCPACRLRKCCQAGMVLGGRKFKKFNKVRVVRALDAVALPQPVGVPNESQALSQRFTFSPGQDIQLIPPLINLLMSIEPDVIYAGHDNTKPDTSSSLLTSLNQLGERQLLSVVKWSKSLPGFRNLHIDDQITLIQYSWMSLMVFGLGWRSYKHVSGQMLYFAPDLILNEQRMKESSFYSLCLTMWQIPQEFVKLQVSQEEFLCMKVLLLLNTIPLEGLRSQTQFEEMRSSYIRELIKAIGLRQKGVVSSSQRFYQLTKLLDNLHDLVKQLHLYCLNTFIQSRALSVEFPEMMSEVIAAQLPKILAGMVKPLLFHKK
Assay: (§1) Agonist activity at progesterone receptor expressed in CHO cells by luciferase assay
Format: functional, cell-based

| SMILES | Activity |
| --- | --- |
| N[C@H]1CCCN2c3ccccc3Oc3ccccc3[C@H]12 | inactive |
| CCN[C@H]1CCCN2c3ccccc3Oc3ccccc3[C@H]12 | inactive |
| CC(C)CNC(=S)N[C@H]1CCCN2c3cc(Cl)ccc3Oc3ccccc3[C@H]12 | inactive |

Target: T2, Progesterone receptor (Homo sapiens, UniProt P06401)
T2 sequence (P06401 whole entry): T1 sequence (whole entry)
Assay: as §1
Format: functional, cell-based

| SMILES | EC50 [nM] |
| --- | --- |
| O=C(N[C@H]1CCCN2c3cc(Cl)ccc3Sc3ccccc3[C@H]12)C(F)(F)F | 2.8 |
| O=C(NC1CCCN2c3cc(Cl)ccc3Oc3ccccc3C12)C(F)(F)F (racemic) | 10.6 |
| O=C(N[C@H]1CCCN2c3cc(F)ccc3Oc3ccccc3[C@H]12)C(F)(F)F | 198 |
| CC(=O)c1ccc2c(c1)N1CCC[C@H](NC(=O)C(F)(F)F)[C@H]1c1ccccc1O2 | 258 |
| N[C@H]1CCCN2c3cc(Cl)ccc3Oc3ccccc3[C@H]12 | 513 |
| O=C(N[C@H]1CCCN2c3cc(Cl)ccc3Oc3ccccc3[C@H]12)OCCl | 598 |
| O=C(N[C@@H]1CCCN2c3cc(Cl)ccc3Oc3ccccc3[C@@H]12)C(F)(F)F (racemic) | 54 |
| O=C(N[C@H]1CCCN2c3ccccc3Oc3ccccc3[C@H]12)C(F)(F)F | 222 |
| O=C(N[C@H]1CCCN2c3c(ccc(Cl)c3Cl)Oc3ccccc3[C@H]12)C(F)(F)F | 1.6 |
| O=C(N[C@H]1CCCN2c3c(Cl)cccc3Oc3ccccc3[C@H]12)C(F)(F)F | 19 |
| CN(C(=O)C(F)(F)F)[C@H]1CCCN2c3cc(Cl)ccc3Oc3ccccc3[C@H]12 | 450 |
| N=C(N[C@H]1CCCN2c3cc(Cl)ccc3Oc3ccccc3[C@H]12)C(F)(F)F | 10.3 |
| O=C(N[C@H]1CCCN2c3cc(Cl)ccc3Cc3ccccc3[C@H]12)C(F)(F)F | 2 |
| CC(=O)N[C@H]1CCCN2c3cc(Cl)ccc3Oc3ccccc3[C@H]12 | 4450 |

Continued, values first:

| EC50 [nM] | SMILES |
| --- | --- |
| 0.81 | C=Cc1cccc2c1N1CCC[C@H](NC(=O)C(F)(F)F)[C@H]1c1ccccc1O2 |
| 1.3 | FC(F)(F)C(=S)N[C@H]1CCCN2c3cc(Cl)ccc3Oc3ccccc3[C@H]12 |
| > 1000 | C=Cc1ccc2c(c1)N1CCC[C@H](NC(=O)C(F)(F)F)[C@H]1c1ccccc1O2 |
| 3 | O=C(N[C@H]1CCCN2c3cc(Cl)ccc3Oc3ccccc3[C@H]12)C(F)(F)F |
| 38 | O=C(N[C@H]1CCCN2c3cc(Cl)c(Cl)cc3Oc3ccccc3[C@H]12)C(F)(F)F |
| 993 | O=C(N[C@H]1CCCN2c3ccc(Cl)cc3Oc3ccccc3[C@H]12)C(F)(F)F |
| 0.96 | CC(=O)c1cccc2c1N1CCC[C@H](NC(=O)C(F)(F)F)[C@H]1c1ccccc1O2 |
| 1340 | CC(C)CN[C@H]1CCCN2c3cc(Cl)ccc3Oc3ccccc3[C@H]12 |
| 9.8 | CN1c2ccccc2[C@@H]2[C@@H](NC(=O)C(F)(F)F)CCCN2c2cc(Cl)ccc21 |

Target: T1, Progesterone receptor (Homo sapiens)
Assay: (§2) Inhibition of progesterone receptor expressed in CHO cells by luciferase assay
Format: cell-based

| SMILES | Activity |
| --- | --- |
| N[C@H]1CCCN2c3ccccc3Oc3ccccc3[C@H]12 | inactive |
| CCN[C@H]1CCCN2c3ccccc3Oc3ccccc3[C@H]12 | inactive |
| N[C@H]1CCCN2c3cc(Cl)ccc3Oc3ccccc3[C@H]12 | inactive |

Target: T2, Progesterone receptor
Assay: as §2
Format: cell-based

| SMILES | IC50 [nM] |
| --- | --- |
| O=C(NC1CCCN2c3cc(Cl)ccc3Oc3ccccc3C12)C(F)(F)F (racemic) | 43 |
| O=C(N[C@H]1CCCN2c3cc(F)ccc3Oc3ccccc3[C@H]12)C(F)(F)F | 730 |
| CC(C)CNC(=S)N[C@H]1CCCN2c3cc(Cl)ccc3Oc3ccccc3[C@H]12 | 314 |
| N=C(N[C@H]1CCCN2c3cc(Cl)ccc3Oc3ccccc3[C@H]12)C(F)(F)F | 133 |
| O=C(N[C@H]1CCCN2c3cc(Cl)ccc3Cc3ccccc3[C@H]12)C(F)(F)F | 26 |
| CC(=O)N[C@H]1CCCN2c3cc(Cl)ccc3Oc3ccccc3[C@H]12 | 193 |

Other lines, results leading:

| IC50 [nM] | SMILES |
| --- | --- |
| 4.3 | O=C(N[C@H]1CCCN2c3cc(Cl)ccc3Oc3ccccc3[C@H]12)C(F)(F)F |
| 318 | O=C(N[C@H]1CCCN2c3cc(Cl)c(Cl)cc3Oc3ccccc3[C@H]12)C(F)(F)F |
| 2220 | O=C(N[C@H]1CCCN2c3ccc(Cl)cc3Oc3ccccc3[C@H]12)C(F)(F)F |
